Test results from article PMC9667253 (eBioMedicine, 2022).

Key:
[1] = biological target: ZFP91 (zinc finger protein 91) (Homo sapiens, UniProt Q96JP5); assay: MST; format: binding
E2F2 = E2F2 (Homo sapiens, UniProt Q14209); assay: competition in biotin-bufalin pull-down from HepG2 lysate; format: cell-based
Sequence of E2F2 (Q14209 whole entry): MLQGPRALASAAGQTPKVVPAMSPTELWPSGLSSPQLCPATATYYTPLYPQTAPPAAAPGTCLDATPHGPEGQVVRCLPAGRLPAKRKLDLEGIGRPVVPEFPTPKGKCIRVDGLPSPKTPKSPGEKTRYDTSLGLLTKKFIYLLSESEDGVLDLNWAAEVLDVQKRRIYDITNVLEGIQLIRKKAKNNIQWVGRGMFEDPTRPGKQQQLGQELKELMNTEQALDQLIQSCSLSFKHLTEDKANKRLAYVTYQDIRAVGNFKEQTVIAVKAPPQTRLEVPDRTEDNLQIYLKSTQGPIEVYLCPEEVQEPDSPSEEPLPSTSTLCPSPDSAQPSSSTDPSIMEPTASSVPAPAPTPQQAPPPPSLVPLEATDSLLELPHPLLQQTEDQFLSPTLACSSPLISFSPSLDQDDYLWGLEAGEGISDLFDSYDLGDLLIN

Sequence of ZFP91 (zinc finger protein 91) (Q96JP5 2-570): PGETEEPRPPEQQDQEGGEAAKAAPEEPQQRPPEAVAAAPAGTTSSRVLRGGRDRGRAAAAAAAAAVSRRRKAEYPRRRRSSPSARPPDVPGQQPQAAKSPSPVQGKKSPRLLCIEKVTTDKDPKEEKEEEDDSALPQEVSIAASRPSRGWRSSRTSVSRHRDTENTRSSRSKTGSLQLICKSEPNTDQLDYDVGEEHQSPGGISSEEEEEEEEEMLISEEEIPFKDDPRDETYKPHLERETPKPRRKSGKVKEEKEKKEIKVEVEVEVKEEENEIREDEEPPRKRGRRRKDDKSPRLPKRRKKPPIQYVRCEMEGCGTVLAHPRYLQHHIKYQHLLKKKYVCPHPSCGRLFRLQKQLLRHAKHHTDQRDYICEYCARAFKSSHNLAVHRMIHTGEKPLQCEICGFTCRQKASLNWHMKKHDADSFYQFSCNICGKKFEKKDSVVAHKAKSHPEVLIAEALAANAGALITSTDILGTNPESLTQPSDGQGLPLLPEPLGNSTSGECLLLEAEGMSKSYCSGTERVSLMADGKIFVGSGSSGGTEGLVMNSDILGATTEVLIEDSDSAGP

O=c1cccco1 [α-Pyr, α-Pyrone] was tested, and the Kd [1] was 900 ± 322 nM.

For C[C@]12CC[C@@H](O)C[C@@H]1CC[C@@H]1[C@@H]2CC[C@]2(C)C(=O)CC[C@@H]12 [DHA, androsterone], the “competition in biotin-bufalin pull-down from HepG2 lysate” value (E2F2) was “DHA significantly limited the binding of biotin-bufalin to E2F2”.
